The text below walks through data of patent US7112590B2, “Thrombin inhibitors” (LEK Pharmaceuticals d.d., priority 2000, dated 2006).

Molecules are shown by their SMILES.

For orientation: Ki means the dissociation constant of the complex between target and ligand, obtained from inhibition or displacement. Low readings indicate higher affinity, high ones lower affinity. A word on the melting point: it is the temperature of the solid-liquid transition.

One series deals with T1, trypsin (UniProt P00760).
T1 construct: Trypsin (6000 E/mg prot; Sigma): dissolved in distilled water to give a stock solution of 300 E/mL
T1 sequence (P00760 1-246): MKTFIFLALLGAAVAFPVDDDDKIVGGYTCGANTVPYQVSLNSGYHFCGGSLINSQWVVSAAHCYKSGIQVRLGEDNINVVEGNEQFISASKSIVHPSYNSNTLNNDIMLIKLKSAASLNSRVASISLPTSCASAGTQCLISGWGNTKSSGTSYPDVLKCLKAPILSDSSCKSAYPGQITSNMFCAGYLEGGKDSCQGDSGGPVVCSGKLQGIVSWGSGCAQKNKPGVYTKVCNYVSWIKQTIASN
As to the kind of experiment: Determination of trypsin Ki (chromogenic substrate S-2222). It counts as biochemical. To be noted: substrate S-2222, pH 7.5, 25° C. The procedure:
The enzyme inhibitory effect of the compounds can be identified by determination of inhibition constant Ki. It denotes the degree of dissociation of the enzyme-inhibitor complex. Low dissociation constant means high potency of inhibitor. Ki can be determined during reaction of the enzyme with a specific chromogenic substrate which under hydrolysis by the enzyme develops color. Reaction in time is recorded by spectrophotometry and Ki is calculated from kinetic parameters (Vmax, Km, reaction rate).
2. Determination of Trypsin Ki
The ability of a compound to act as an inhibitor of trypsin catalytic activity was assessed by determination of Ki.
Buffer: HBSA, pH 7.5 (10 mM Hepes, 150 mM NaCl, 0.1% w/v bovine serum albumin)
Substrate (S-2222: N-benzoyl-Ile-Glu-Gly-Arg-pNA HCl, 25 mg; Chromogenix): dissolved in distilled water to 2 mM concentration. (Km is 21 μM)
Trypsin (6000 E/mg prot.; Sigma): dissolved in distilled water to give a stock solution of 300 E/mL.
Inhibitors: were dissolved in DMSO (10 mM stock solution) and diluted with distilled water to working solution (the highest final concentration of DMSO was 10%).
50 μL of buffer, 50 μL of test compound in water (final concentrations from 50 to 300 μM) and 50 μL of trypsin (3 mE/mL f.c.) were incubated for 15 minutes at room temperature. The reaction was started with 50 μL of S-2222 (50 μM or 100 μM f.c.) and the absorbance of each sample at 405 nm (at 25° C.) was measured in triplicates every 10 seconds for a period of 15 minutes using a microtiter plate reader (Tecan Sunrise).
Trypsin activity was determined from the change in absorbance in the linear part of velocity graph. Ki was calculated according to Cheng and Prussof (Biochem Pharmacol, 1973) where Ki is, IC50/(1+S/Km). The Km for the substrate was determined under test conditions with at least 6 substrate concentrations varying around Km and calculated with the non-linear regression program Curve expert.
`NC(C(=O)N1CCCC1C(=O)NCC1CCc2n[nH]cc2C1)C(c1ccccc1)c1ccccc1` (stereo not drawn) showed a Ki of 217 µM.

System in another series: not given
Test: not given
Conditions: not given
In turn, `CC(C)(C)OC(=O)N[C@H](C(=O)N1CCC[C@H]1C(=O)NC1CCc2nc(N)sc2C1)C(c1ccccc1)c1ccccc1` (stereo partly drawn) [Example 35, tert-Butyl (1S)-2-((2S)-2-{[(2-amino-4,5,6,7-tetrahydro-1,3-benzothiazol-6-yl)amino]carbonyl}pyrrolidinyl)-1-benzhydryl-2-oxoethylcarbamate] returned a melting point of 127 to 130 °C.
On the same count and under the same terms, the same measure for `Nc1nc2ccc(NC(=O)[C@@H]3CCCN3C(=O)[C@@H](Cc3ccccc3)NS(=O)(=O)Cc3ccccc3)cc2s1` [Example 38, (2S)-N-(2-Amino-1,3-benzothiazol-6-yl)-1-{(2R)-2-[(benzylsulfonyl)amino]-3-phenylpropanoyl}-2-pyrrolidinecarboxamide]: 130 to 133 °C.
`Nc1nc2ccc(NC(=O)CNC(=O)[C@@H](Cc3ccccc3)NS(=O)(=O)Cc3ccccc3)cc2s1` [Example 39, (2R)-N-{2-[(2-Amino-1,3-benzothiazol-6-yl)amino]-2-oxoethyl}-2-[(benzylsulfonyl)amino]-3-phenylpropanamide] yielded a melting point of 127 to 130 °C.
Same read-out and setting: the figure for `Nc1ncnc2ccc(NC(=O)[C@@H]3CCCN3C(=O)CNC(c3ccccc3)(c3ccccc3)c3ccccc3)cc12` [Example 42, (2S)-N-(4-amino-6-quinazolinyl)-1-{2-[(triphenylmethyl)amino]acetyl}-2-pyrrolidinecarboxamide] is over 250 °C; for `CC(C)(C)OC(=O)N[C@@H](C(=O)N1CCC[C@H]1C(=O)NC1CCc2n[nH]cc2C1)C(c1ccccc1)c1ccccc1` (stereo partly drawn) [Example 55, tert-Butyl (1R)-1-benzhydryl-2-oxo-2-{(2S)-2-[(4,5,6,7-tetrahydro-2H-indazol-5-ylamino)carbonyl]pyrrolidinyl}ethylcarbamate] it is 119 to 122 °C; for `Nc1ncc2c(n1)CCC(CNC(=O)[C@@H]1CCCN1C(=O)[C@@H](CC1CCCCC1)NS(=O)(=O)Cc1ccccc1)C2` (stereo partly drawn) [Example 57, (2S)-N-[(2-Amino-5,6,7,8-tetrahydro-6-quinazolinyl)methyl]-1-{(2R)-2-[(benzylsulfonyl)amino]-3-cyclohexylpropanoyl}-2-pyrrolidinecarboxamide] it is 118 to 121 °C.
`O=C(NCC1CCc2n[nH]cc2C1)[C@@H]1CCCN1C(=O)[C@@H](CC1CCCCC1)NS(=O)(=O)Cc1ccccc1` (stereo partly drawn) [Example 58, (2S)-1-{(2R)-2-[(Benzylsulfonyl)amino]-3-cyclohexylpropanoyl}-N-(4,5,6,7-tetrahydro-2H-indazol-5-ylmethyl)-2-pyrrolidinecarboxamide]: the melting point was 100 to 103 °C.
Compound `CC(C)(C)OC(=O)N[C@H](Cc1ccc(Cl)c(Cl)c1)C(=O)N1CCC[C@H]1C(=O)NCC1CCc2n[nH]cc2C1` (stereo partly drawn) [Example 59, tert-Butyl (1R)-1-(3,4-dichlorobenzyl)-2-oxo-2-((2S)-2-{[(4,5,6,7-tetrahydro-2H-indazol-5-ylmethyl)amino]carbonyl}pyrrolidinyl)ethylcarbamate] gave a melting point of 100 to 103 °C.
Same read-out and setting: the same measure for `CC(C)(C)OC(=O)N[C@H](Cc1ccc(Cl)c(Cl)c1)C(=O)N1CCC[C@H]1C(=O)NCC1CCc2nc(N)ncc2C1` (stereo partly drawn) [Example 61, tert-Butyl (1R)-2-[(2S)-2-({[(2-amino-5,6,7,8-tetrahydro-6-quinazolinyl)methyl]amino}carbonyl)pyrrolidinyl]1-(3,4dichlorobenzyl)-2-oxoethylcarbamate]: 110 to 113 °C.
For `O=C(NC1CCc2c[nH]cc2C1)[C@@H]1CCCN1C(=O)[C@@H](CC1CCCCC1)NS(=O)(=O)Cc1ccccc1` (stereo partly drawn) [Example 63, (2S)-1-{(2R)-2-[(Benzylsulfonyl)amino]-3-cyclohexylpropanoyl}-N-(4,5,6,7-tetrahydro-2H-isoindol-5-yl)-2-pyrrolidinecarboxamide], the melting point was in the range of 106 to 109 °C.
On the same count and under the same terms, the figure for `CC(C)(C)OC(=O)N[C@@H](C(=O)N1CCC[C@H]1C(=O)NCC1CCc2n[nH]cc2C1)C(c1ccccc1)c1ccccc1` (stereo partly drawn) [Example 64, tert-Butyl (1R)-1-benzhydryl-2-oxo-2-((2S)-2-{[(4,5,6,7-tetrahydro-2H-indazol-5-ylmethyl)amino]carbonyl}pyrrolidinyl)ethylcarbamate] is 113 to 116 °C; for `CC(C)(C)OC(=O)N[C@@H](C(=O)N1CCC[C@H]1C(=O)NCC1CCc2nc(N)ncc2C1)C(c1ccccc1)c1ccccc1` (stereo partly drawn) [Example 67, tert-Butyl (1R)-2-[(2S)-2-({[(2-amino-5,6,7,8-tetrahydro-6-quinazolinyl)methyl]amino}carbonyl)pyrrolidinyl]-1-benzhydryl-2-oxoethylcarbamate] it is 127 to 130 °C.
For `Nc1nc2c(s1)CC(CNC(=O)[C@@H]1CCCN1C(=O)[C@@H](CC1CCCCC1)NS(=O)(=O)Cc1ccccc1)CC2` (stereo partly drawn) [Example 69, (2S)-N-[(2-Amino-4,5,6,7-tetrahydro-1,3-benzothiazol-6-yl)methyl]-1-{(2R)-2-[(benzylsulfonyl)amino]-3-cyclohexylpropanoyl}-2-pyrrolidinecarboxamide], the melting point is 203 to 205 °C.
`CC(C)(C)OC(=O)CN(C(=O)OC(C)(C)C)[C@H](CC1CCCCC1)C(=O)N1CCC[C@H]1C(=O)NC1CCc2nc(N)sc2C1` (stereo partly drawn) [Example 70, tert-Butyl 2-[[(1R)-2-((2S)-2-{[(2-amino-4,5,6,7-tetrahydro-1,3-benzothiazol-6-yl)amino]carbonyl}pyrrolidinyl)-1-(cyclohexylmethyl)-2-oxoethyl](tert-butoxycarbonyl)amino]acetate] gave a melting point of 95 to 101 °C.
